# Laboratory results reported in patent US10471025B2, “Compositions for use in treating parkinson's disease and related disorders” (Technophage, Investigação E Desenvolvimento Em …, priority 2015, dated 2019).
# Values joined by “and” are separate entries in the source; they are usually repeats but may differ in a detail not shown here. Equal entries are not always repeated. “Also recorded” adds a separate entry of the source. Where two headings read alike, the source gives them in different places.
# What was measured:
# [1] = cited from earlier work
# COX-2 = target: T1, COX-2 (Homo sapiens, UniProt P35354); details: cited from earlier work
# T1 sequence (P35354 18-604): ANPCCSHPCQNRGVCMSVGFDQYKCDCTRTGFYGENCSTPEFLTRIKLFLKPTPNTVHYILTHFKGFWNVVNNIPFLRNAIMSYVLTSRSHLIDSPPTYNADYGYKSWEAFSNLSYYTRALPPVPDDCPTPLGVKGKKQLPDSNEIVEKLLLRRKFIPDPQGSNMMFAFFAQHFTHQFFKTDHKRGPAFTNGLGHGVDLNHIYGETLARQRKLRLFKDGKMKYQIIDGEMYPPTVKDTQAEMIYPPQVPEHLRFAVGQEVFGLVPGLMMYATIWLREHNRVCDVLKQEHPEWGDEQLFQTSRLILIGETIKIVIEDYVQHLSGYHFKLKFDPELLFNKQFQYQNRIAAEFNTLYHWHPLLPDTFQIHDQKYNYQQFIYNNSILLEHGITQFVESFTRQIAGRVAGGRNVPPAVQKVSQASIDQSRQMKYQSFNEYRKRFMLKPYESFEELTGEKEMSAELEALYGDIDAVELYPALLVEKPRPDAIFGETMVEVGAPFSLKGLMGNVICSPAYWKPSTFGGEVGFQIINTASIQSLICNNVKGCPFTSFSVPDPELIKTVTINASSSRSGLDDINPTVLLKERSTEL
# [2] = tested on: 6-OHDA treated zebrafish larvae; assay: Locomotor behavior rescue (total distance moved, number of jumps) in 6-OHDA zebrafish PD model; format: in vivo; details: for Optimal concentration: behavioral experiments and TH+ cell counts; for Number of jumps: concentration validated as recovering the 6-OHDA induced behavior / Total distance travelled, difference between treated larvae and disease control: zebrafish, in vivo
# Description: To model Parkinson ̆s disease (PD), a neurotoxin 6-OHDA (6-hyroxydopamine) based method was used in zebrafish and in mice. In this model, 6-OHDA-lesions induce motor manifestations in zebrafish and in mice, such as reduced locomotor ability, and the loss of dopaminergic neurons. Based on the 6-OHDA PD zebrafish model, compounds from a small molecules library were screened for rescue of the parkinsonian phenotype (Example 1, see below).
# The screen was based on both the recovery of impaired locomotor behavior and dopaminergic neuronal loss.
# Values were normalized for the mean of disease state in each experiment (disease=1). Each plot contains data from 3 independent experiments with a total of 24 larvae. As a control, zebrafish were treated with only the vehicle, ascorbic acid.
# For these experiments, Tubingen (TU) wild-type zebrafish, a specific strain of wild-type zebrafish, were used.
# [3] = tested on: 6-OHDA treated zebrafish larvae; assay: Rescue of Tyrosine hydroxylase (TH)-positive dopaminergic neurons in 6-OHDA zebrafish larvae; format: in vivo; details: for Neurorescue: TH+ neurons at optimal dose, p; for Neuroprotective effect / recovery of TH+ neurons: at the optimal concentration of each molecule
# Protocol: The 7 candidates also were tested in terms of rescue of dopaminergic neurons positive for Tyrosine hydroxylase (Th) in the substancia nigra pars compacta of the test animals. […] Results were normalized for healthy control values (healthy control=100% of neurons). As a control, zebrafish were treated with only the vehicle, ascorbic acid. ‘6-OHDA_ represents results in zebrafish receiving no treatment.
# FIGS. 6E-6G show representative Z-projections of confocal stacks of whole-mount anti-TH immunohistochemistry in 6 days post-fertilization (dpf) of zebrafish larvae (age of the fish) control (FIG. 6E), 6-OHDA (FIG. 6F), and tapentadol treated-larvae (FIG. 6G).
# [4] = tested on: 6-OHDA treated zebrafish larvae; assay: Co-administration with L-Dopa, total distance 6-OHDA larvae move; format: in vivo; details: total distance; L-Dopa 250 or 125 μM
# [5] = in DMSO; cited from earlier work
# [6] = tested on: 6-OHDA treated zebrafish larvae; assay: Freezing (duration of freezing periods, light/dark stimulus) in 6-OHDA zebrafish larvae; format: in vivo; details: for Freezing recovery: optimal concentrations, methylphenidate 25 μM; for Duration of freezing periods, recovery vs 6-OHDA treated larvae: tapentadol 48.5, stavudine 50, nabumetone 0.91 μM, L-Dopa treatment
# Protocol: In the zebrafish model, the locomotor impairment was measured and related with bradykinesia in patients. Tests included evaluating ‘freezing_ in response to a light/dark stimulus. 6-OHDA induced larvae had fewer freezing episodes but spent longer periods in the frozen state. In previous studies, the duration of freezing episodes has been analyzed in PD patients. […] Nonetheless, it is an inhibitor of the neuronal dopamine transporter and since 6-OHDA needs DAT to enter the neuron and induce the disease, methylphenidate may be a false positive.
# As FIGS. 9B-9C show, freezing recovery was tested using 7 candidate molecules at optimal concentrations, in an exemplary experiment with n=8 fish, and methylphenidate and amantadine at 25 ? M.
# rat = details: rat, cited from earlier work
# mouse = details: mouse, cited from earlier work
# [7] = tested on: 6-OHDA treated zebrafish larvae; assay: LD50 / lethality in the disease context of the zebrafish model
# 6-OHDA mouse model [8] = assay: Rotarod test, unilateral striatal 6-OHDA mice (Example 5); format: in vivo; details: daily i.p., dosages tested (C1 and C2)
# 6-OHDA mouse model [9] = assay: Cylinder test, 6-OHDA mice (Example 5); format: in vivo; design: Cylinder test: number of right turns: dose or concentration left out as unconfirmed
# 6-OHDA mouse model [10] = assay: Abnormal involuntary movements, 6-OHDA mice (Example 5); format: in vivo; details: mouse, in vivo
# Protocol: This condition results in a range of involuntary movements that can be evaluated by video tracking analyses. […] Evaluations were performed during two independent trials, 30 and 90 minutes after treatment administration. […] Nonetheless, forelimb and orofacial involuntary movements are extremely hard to detect, and reading errors occur, considering the size of the animals. Total abnormal involuntary movements are the sum of all 4 different involuntary movements evaluated and is the parameter often reported in the literature.
# As FIGS. 17A-17F show, abnormal involuntary movements were evaluated using the cylinder test 28 days post injection. […] Values mean ě SEM (n=5-8).
# [11] = cited from earlier work; remark: listed apart in the source
# [12] = 0.01 to 11.4 μg/mL; cited from earlier work
# [13] = tested on: CY P1A2, CY P2C9, CY P2C19, CY P2D6, and CY P3A4; details: cited from earlier work
# dogs = details: dog, in vivo, cited from earlier work
# [14] = in vivo; cited from earlier work
# [15] = cited from earlier work; remark: listed apart in the source
# healthy wild type mice = assay: Toxicity assay, welfare and necropsy (Example 6); details: tramadol 10 mg/kg in combination with L-Dopa; L-Dopa 18 mg/kg; 24 h
# Protocol: Their behavior was evaluated with open field tests for 1 h after i.p. injection. After 24 h, animals were sacrificed and necropsy was performed
# 9 week old NMRI female mice were used for this assay. Animals were tested for their welfare after two intraperitoneal injections of the test agents using the open field test. Necropsy was done after cervical dislocation. […] Benserazide at 12 mg/kg was administered 30 minutes prior to administration of these compounds, in all groups. Saline was given to the control group.
# After benserazide administration, animals were monitored in the open field for 30 minutes for habituation. […] 24 hours after administration of the compounds, the animals were sacrificed and necropsy performed.
# For administration of the various agents to the animals, two 700 ? L injections were administered 30 minutes apart.
# [16] = oral 1,000-2,000 mg to steady state
smiles,measurement,setting,value
"COc1ccc2cc(CC(=O)O)ccc2c1 [6MNA, 6-methoxy-2-naphthylacetic acid]",Printed only as 'It is 0.2-0.3%' (after plasma protein binding),"[1]; concentrations typically achieved following 1,000 mg of nabumetone",0.2-0.3%
same,Bound to plasma proteins,[1]; in vivo,more than 99%
same,Elimination half-life,[1]; [16],approximately 24 hours
same,Mean plasma clearance,[1]; [16],20 to 30 mL/min
same,Inhibition of prostaglandin synthesis,COX-2; most likely through binding to the COX-2 and COX-1 receptors,potent inhibitor
COC(=O)C1=C(C)NC(C)=C(C(=O)OC(C)C)C1c1cccc2nonc12 (stereo not shown) [Isradipine],Optimal concentration,[2],0.045 µM
same,"Effective concentration / peak, small range plot","[2]; phenotype recovery, total distance moved",0.045 µM and 0.084 µM
same,Neurorescue,[3],confirmed
same,Effect of co-administration with L-Dopa on locomotor recovery,[4],lost its effect
same,Solubility,[5],25 mg/ml in
COC(=O)C(c1ccccc1)C1CCCCN1 (stereo not shown) [Methylphenidate],Freezing recovery,[6],more consistent freezing recovery
COc1ccc2cc(CCC(C)=O)ccc2c1 [nabumetone],"Locomotor behavior rescue (total distance moved, number of jumps), confirmation of screen","[2]; 7 candidate molecules, 3 independent experiments",strong candidates
same,Optimal concentration,[2],0.9 µM
same,Number of jumps: concentration validated as recovering the 6-OHDA induced behavior,[2],0.456 µM
same,"Total distance travelled, difference between treated larvae and disease control",[2],~200 mm
same,Neurorescue,[3],confirmed
same,Neuroprotective effect / recovery of TH+ neurons,[3],confirmed; also recorded: Recovery was observed
same,Freezing recovery,[6],do not show an ability to recover freezing phenotype
same,"Duration of freezing periods, recovery vs 6-OHDA treated larvae",[6],not recovered
same,Effect of co-administration with L-Dopa on locomotor recovery,[4],the same
same,Share of dose converted into unidentified metabolites,"[1]; 1,000 mg oral dose",50%
same,Share of dose converted to 6MNA,"[1]; 1,000 mg oral dose",Approximately 35%
same,Absorption from the gastrointestinal tract,[1]; in vivo,well absorbed
same,COX-2 inhibition,COX-2,poor COX-2 inhibitor
same,Solubility,[5],50 mg/ml in
same,LD50,rat,(mouse) or 3880 mg/kg
same,LD50,mouse,4290 mg/kg
same,Embryo lethality,[7]; 18 μM,no dead embryos
same,Embryo lethality,[7]; 27 μM,all of the embryos were dead
Cc1cn([C@H]2C=C[C@@H](CO)O2)c(=O)[nH]c1=O [stavudine],Therapeutic window,[2]; 6-OHDA zebrafish larvae,50 to 70 µM
same,Optimal concentration,[2],50 µM
same,Number of jumps: concentration validated as recovering the 6-OHDA induced behavior,[2],50 µM
same,"Total distance travelled, difference between treated larvae and disease control",[2],400 mm
same,Neurorescue,[3],confirmed p < 0.09
same,Neuroprotective effect / recovery of TH+ neurons,[3],confirmed
same,Freezing recovery,[6],positive results; also recorded: reverted freezing
same,"Duration of freezing periods, recovery vs 6-OHDA treated larvae",[6],recovered
same,Effect of co-administration with L-Dopa on locomotor recovery,[4],not affected; also recorded: least effective; also recorded: not influenced
same,"Rotarod: latency to fall and speed, recovery",6-OHDA mouse model [8],did not have an effect
same,Cylinder test: number of right turns,6-OHDA mouse model [9]; parameter disregarded,phenotypic recovery in a very similar way to L-Dopa
same,Cylinder test: number of rearings,"6-OHDA mouse model [9]; vs 6-OHDA group, daily i.p.",did not show recovery
same,Cylinder test: percentage of animals with tremor,"6-OHDA mouse model [9]; vs 6-OHDA group, daily i.p.",did not show recovery
same,Cylinder test: percentage of contralateral paw use,"6-OHDA mouse model [9]; vs 6-OHDA group, daily i.p.",did not show recovery
same,Induction of abnormal involuntary movements,6-OHDA mouse model [10],"None of the treatments, tapentadol or stavudine of the combination, induced involuntary movements"
same,Clearance,"[11]; HIV-infected adult and pediatric patients, 1-hour IV infusion",594 ± 164 mL/min
same,Accumulation with repeated administration,"[11]; every 6, 8, or 12 hours",no significant accumulation
same,Renal clearance,[11]; healthy subjects receiving 80 mg PO,272 mL/min
same,"Renal elimination, share of the overall clearance","[11]; humans, regardless of the route",about 40%
same,Half-life,[11]; in adults,48 to 90 min
same,Time of peak plasma concentrations after dosing,[11]; oral administration,≤ 1 h
same,Protein binding,[12],negligible
same,Inhibition of major cytochrome P450 isoforms,[13],not considered to inhibit
same,LD50,"rat; in vivo, iv","1,200 mg/kg"
same,LD50,"rat; in vivo, po","4,000 mg/kg"
same,LD50,rat,4 g/kg (rat)
same,LD50,"mouse; in vivo, iv","1,000 mg/kg"
same,LD50,"mouse; in vivo, po","1,000 mg/kg"
same,LD50,dogs; iv,"1,680 mg/kg"
same,LD50,dogs; po,"2,000 mg/kg"
same,LD50,[7]; 6-OHDA disease-induced zebrafish larvae,>10 mM
same,LD50,[7]; 6-OHDA zebrafish larvae,"> 10,000 μM"
CC[C@@H](c1cccc(O[C@@H]2O[C@H](C(=O)O)[C@@H](O)[C@H](O)[C@H]2O)c1)[C@@H](C)CN(C)C [tapentadol-O-glucuronide],Blood-brain barrier crossing,[14],lower permeability through the blood brain barrier
same,"AUC, fold higher compared with normal renal function",[15]; mild renal impairment (CLCR=50 to <80 mL/min),1.5 fold
same,"AUC, fold higher compared with normal renal function",[15]; moderate renal impairment (CLCR=30 to <50 mL/min),2.5 fold
same,Mean accumulation factor,"[15]; multiple (every 6 hour) dose study, 75 to 175 mg tapentadol",1.8
same,"AUC, fold higher compared with normal renal function",[15]; severe renal impairment (CLCR=<30 mL/min),5.5 fold
COc1cccc(C2(O)CCCCC2CN(C)C)c1 (stereo not shown) [tramadol],Necropsy findings,healthy wild type mice,"normal abdominal organs, with the exception of one that had a slight hyperemia in the small intestine"
